Earlier results, collected in EP0719130B1, “COMPLEX CALCIUM AND FLUORIDE CONTAINING MOUTH RINSES, DENTIFRICES, AND CHEWABLE TABLETS” (AMERICAN DENTAL ASSOCIATION HEALTH FOUNDATION, priority 1993, dated 1995).

Details: buffer acid or salt

Row | pK | Compound
1 | 14.15 | OCC(O)CO [glycerol]
2 | 7.4 | O=S(=O)(O)CCN1CCN(CCO)CC1 [HEPES]

Row | Compound | pK
3 | tyrosine salts | 8.4
